According to patent US10273234B2, “Compounds that are S1P modulating agents and/or ATX modulating agents” (BIOGEN MA INC., priority 2012, dated 2019):
pIC50: −log10 of the molar value.

Biological target: human S1P4 (Homo sapiens (Human), UniProt O95977)
Assay: Calcium mobilization (calcium flux) assay, antagonist format, S1P4
Assay type: cell-based
Details: recombinant CHEM cells expressing human S1P4; FLIPR Calcium 4 dye; stimulated with EC80 of reference agonist
Experimental: Compounds that are not specific for a particular S1P receptor can cause undesirable side effects. Accordingly, compounds are tested to identify those that are specific. Accordingly, the test compounds are tested in a calcium mobilization assay/S1P receptor activity assay. The procedure is essentially as described in Davis et al. (2005) Journal of Biological Chemistry, vol. 280, pp. 9833-9841, which is incorporated by reference in its entirety with the following modifications. Calcium mobilization assays are performed in recombinant CHEM cells expressing human S1P1, S1P2, S1P3, S1P4, or S1P5 purchased from Millipore (Billerica, Mass.). To detect free intracellular calcium, S1P1, S1P2, S1P3, S1P4, or S1P5 cells are loaded with FLIPR Calcium 4 dye from Molecular Devices (Sunnyvale, Calif.). Cells are imaged for calcium mobilization using a FLIPR^TETRA equipped with a 96-well dispense head. […]
Assay was read for 180 seconds using the FLIPR^TETRA (This assay run added sample compounds and reference agonist to respective wells). […]
Using the EC80 values determined during the agonist assay, stimulated all pre-incubated sample compound and reference antagonist (if applicable) wells with EC80 of reference agonist. Read for 180 seconds using the FLIPR^TETRA (This assay added reference agonist to respective wells—then fluorescence measurements were collected to calculate percentage inhibition values).

human S1P4, sequence (O95977 whole entry): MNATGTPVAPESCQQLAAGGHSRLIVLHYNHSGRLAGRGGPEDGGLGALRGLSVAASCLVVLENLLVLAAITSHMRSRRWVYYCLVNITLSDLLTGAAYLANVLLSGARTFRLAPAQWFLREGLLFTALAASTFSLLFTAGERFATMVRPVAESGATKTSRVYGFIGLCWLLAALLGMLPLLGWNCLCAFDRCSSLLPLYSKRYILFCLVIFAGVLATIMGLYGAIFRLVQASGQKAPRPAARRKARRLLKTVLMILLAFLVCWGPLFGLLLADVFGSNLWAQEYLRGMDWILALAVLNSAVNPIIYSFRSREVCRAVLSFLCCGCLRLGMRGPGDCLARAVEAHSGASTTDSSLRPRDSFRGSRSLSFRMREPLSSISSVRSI

With `CC(C)(C)[C@H]1CC[C@H](Oc2cccc3c(CN4CCC(C(=O)O)CC4)cccc23)CC1` [Example 30, 1-((5-((trans-4-(tert-butyl)cyclohexyl)oxy)naphthalen-1-yl)methyl)piperidine-4-carboxylic acid] as the molecule, how does the pIC50 read?
Its pIC50 is ≥ 6.60.
